Test results published in patent US12419305B2, “Antimicrobial compositions” (Firmenich SA, priority 2018, dated 2025).

Columns and labels:
[1] = tested on: Pseudomonas aeruginosa ATCC 15442; assay: BCT test (bacterial contact time), 60 s, log reduction / effect fraction; CI by Compusyn; assay type: cell-based; settings: Pseudomonas aeruginosa, ATCC15442, 1 min, BCT 60 s, in 25% EtOH
Protocol: (§1) E. coli, S. aureus, P. aeruginosa, and S. enterica: Separate suspensions of the E. coli ATCC 10536 strain, S. aureus ATCC 6538 strain, Pseudomonas aeruginosa ATCC 15442 strain, and the Salmonella enterica ATCC 10708 strain were prepared as follows: Stock cultures (stored at −80° C.) were thawed and sub-cultured onto Tryptic Soy Agar (TSA) agar plate media, and incubated at 37° C. for 24 h to obtain single colonies. Single colonies of the primary cultures were streaked onto TSA plates and incubated at 37° for 24 h to generate secondary cultures. Single colonies of secondary cultures picked and used to inoculate into 50 mL of TSB broth. The inoculated TSB broth was incubated at 37° C. at 180 rpm for 18 h. Aliquots (0.5 ml) of the 18 h culture were inoculated into 50 ml of fresh TSB broth, and incubated at 37° C. at 180 rpm for 2-3 hours. When the OD600 nm value of the broth reached 1-2, cells were harvested by centrifugation at 5000 rpm for 10 min, and then resuspended in fresh TSB broth at a concentration of 1-5×10^8 CFU/mL. These suspensions were used as the bacterial suspensions for the BCT test.
(§2) BCT Test: Test compositions at a range of concentrations (either combinations of more than one perfume ingredient, and comparative compositions comprising the single perfume ingredients) were prepared in ethanol. Five replicates of each test composition were added into 96-well microtiter plates (120 μl per well), with row B containing control compositions containing the ethanol solution alone. 120 μl of bacterial cell suspensions at a concentration of approximately 1×10^8 bacteria per mL (as prepared above) were added to each well of the microtiter plate. The bacterial suspensions were incubated with the test solutions for 45, 60, or 120 seconds. Following the incubation of the bacterial suspensions with the test solutions, serial dilutions of the bacterial suspensions were generated (three serial 1:10 dilutions, followed by 17 serial 1:2 dilutions), in multiwell microtiter plates.
(§3) Each plate was sealed and incubated at 37° C. under agitation (180 rpm). After incubation, the turbidity of the wells (OD600 nm) was determined using a Tecan microplate reader. Turbid wells were regarded as positive growth, due to the presence of viable cells. The total number of viable cells (log CFU) for each sample was calculated. And the log reduction for each test composition at the final concentration (dose) was calculated against the control sample of the ethanol solution.
(§4) Determination of Synergy via the Combination Index (CI): The CI was calculated using Compusyn software (ComboSyn, Inc., as created by Dr. Dorothy Chou in 2005), according to the manufacturer's instructions. The concentration of each test composition (combinations of more than one perfume ingredient, and comparative compositions comprising the single perfume ingredients used to generate the combination) and their corresponding effect fraction was entered, and the corresponding CI calculated.
(§5) When the calculated CI values were less than 0.9, the combination of perfume ingredients was regarded as having synergistic effect. When the calculated CI was between 1.0 a 0.9, the combination of perfume ingredients was regarded as having an additive effect. When the calculated CI was greater than 1.0, the combination of perfume ingredients was regarded as having an antagonistic effect.

S. aureus ATCC 6538 = assay: as above; assay type: cell-based, Staphylococcus aureus; settings: in 25% EtOH
Protocol: as §1, §2, §3, §4, §5

E. coli ATCC 10536 = assay: BCT test (bacterial contact time), 45 s, log reduction / effect fraction; CI by Compusyn; assay type: cell-based, Escherichia coli; settings: 45 s, in 20% EtOH
Protocol: as §1, §2, §3, §4, §5

[2] = tested on: Salmonella enterica ATCC 10708; assay: BCT test (bacterial contact time), 60 s, log reduction / effect fraction; CI by Compusyn; assay type: cell-based; settings: BCT 60 s, in 25% EtOH
Protocol: as §1, §2, §3, §4, §5

COc1ccc(C=O)cc1 [Aldehyde Anisic, 4-methoxybenzaldehyde]
log reduction at 0.3 % strength ([1]; Dose 0.3 % w/v, read-out: Log reduction): 0.6 | log reduction at 0.35 % strength ([1]; Dose 0.35 % w/v): 1.6 | log reduction at 0.45 % strength ([1]; Dose 0.45 % w/v, read-out: Log reduction): 6.2 | log reduction at 0.475 % strength ([1]; Dose 0.475 % w/v): 5.9 | log reduction at 0.5 % strength ([1]; Dose 0.5 % w/v): 7 | log reduction at 0.5 % strength (S. aureus ATCC 6538; Staphylococcus aureus, ATCC6538, 1 min, dose 0.500 % w/v, 60 s, read-out: Log reduction): 0.7 | log reduction at 0.6 % strength (S. aureus ATCC 6538; Staphylococcus aureus, ATCC6538, 1 min, dose 0.600 % w/v, 60 s, read-out: Log reduction): 2.3 | log reduction at 0.65 % strength (S. aureus ATCC 6538; Staphylococcus aureus, ATCC6538, 1 min, dose 0.650 % w/v, 60 s): 3.5 | log reduction at 0.7 % strength (S. aureus ATCC 6538; Staphylococcus aureus, ATCC6538, 1 min, dose 0.700 % w/v, 60 s, read-out: Log reduction): 5.9 | log reduction at 0.8 % strength (S. aureus ATCC 6538; Staphylococcus aureus, ATCC6538, 1 min, dose 0.800 % w/v, 60 s): 6.9 | log reduction at 0.4 % strength (E. coli ATCC 10536; Escherichia coli, ATCC10536, 45 s, dose 0.400 % w/v): 0.3 | log reduction at 0.45 % strength (E. coli ATCC 10536; Escherichia coli, ATCC10536, 45 s, dose 0.450 % w/v, read-out: Log reduction): 0.6 | log reduction at 0.5 % strength (E. coli ATCC 10536; Escherichia coli, ATCC10536, 45 s, dose 0.500 % w/v): 2.7 | log reduction at 0.55 % strength (E. coli ATCC 10536; Escherichia coli, ATCC10536, 45 s, dose 0.550 % w/v, read-out: Log reduction): 6.7 | log reduction at 0.6 % strength (E. coli ATCC 10536; Escherichia coli, ATCC10536, 45 s, dose 0.600 % w/v, read-out: Log reduction): 7.3

CCOC(=O)C=Cc1ccccc1 [Ethyl Cinnamate]
log reduction at 0.03 % strength (E. coli ATCC 10536; Escherichia coli, ATCC10536, 45 s, dose 0.030 % w/v): 1 | log reduction at 0.035 % strength (E. coli ATCC 10536; Escherichia coli, ATCC10536, 45 s, dose 0.035 % w/v): 3.7 | log reduction at 0.04 % strength (E. coli ATCC 10536; Escherichia coli, ATCC10536, 45 s, dose 0.040 % w/v): 5.4 | log reduction at 0.045 % strength (E. coli ATCC 10536; Escherichia coli, ATCC10536, 45 s, dose 0.045 % w/v): 7.3

COC(C)(C)CCCC(C)C=O (stereo not drawn) [Methoxymelonal]
Effect fraction (S. aureus ATCC 6538; Dose 0.600 % w/v, BCT 60 s): 0.020 | Log reduction (S. aureus ATCC 6538; Dose 0.600 % w/v, BCT 60 s): 0.1 | Effect fraction (S. aureus ATCC 6538; Dose 0.800 % w/v, BCT 60 s): 0.110 | Log reduction (S. aureus ATCC 6538; Dose 0.800 % w/v, BCT 60 s): 0.8 | Effect fraction (S. aureus ATCC 6538; Dose 0.900 % w/v, BCT 60 s): 0.360 | Log reduction (S. aureus ATCC 6538; Dose 0.900 % w/v, BCT 60 s): 2.6 | Effect fraction (S. aureus ATCC 6538; Dose 1.000 % w/v, BCT 60 s): 0.700 | Log reduction (S. aureus ATCC 6538; Dose 1.000 % w/v, BCT 60 s): 5.1 | Effect fraction (S. aureus ATCC 6538; Dose 1.200 % w/v, BCT 60 s): 0.970 | Log reduction (S. aureus ATCC 6538; Dose 1.200 % w/v, BCT 60 s): 7.1

OCCc1ccccc1 [PEA]
Effect fraction (E. coli ATCC 10536; dose 0.650 % w/v): 0.00 | Log reduction (E. coli ATCC 10536; dose 0.650 % w/v): 0.0 | Effect fraction (E. coli ATCC 10536; dose 0.700 % w/v): 0.01 | Log reduction (E. coli ATCC 10536; dose 0.700 % w/v): 0.1 | Effect fraction (E. coli ATCC 10536; dose 0.750 % w/v): 0.11 | Log reduction (E. coli ATCC 10536; dose 0.750 % w/v): 0.8 | Effect fraction (E. coli ATCC 10536; dose 0.800 % w/v): 0.16 | Log reduction (E. coli ATCC 10536; dose 0.800 % w/v): 1.2 | Effect fraction (E. coli ATCC 10536; dose 0.850 % w/v): 0.60 | Log reduction (E. coli ATCC 10536; dose 0.850 % w/v): 4.3

OC/C=C/c1ccccc1 [Cinnamic Alcohol Ord]
Effect fraction (E. coli ATCC 10536; dose 0.200 % w/v): 0.00 | Log reduction (E. coli ATCC 10536; dose 0.200 % w/v): 0 | Effect fraction (E. coli ATCC 10536; dose 0.250 % w/v): 0.02 | Log reduction (E. coli ATCC 10536; dose 0.250 % w/v): 0.2 | Effect fraction (E. coli ATCC 10536; dose 0.300 % w/v): 0.17 | Log reduction (E. coli ATCC 10536; dose 0.300 % w/v): 1.3 | Effect fraction (E. coli ATCC 10536; dose 0.350 % w/v): 0.52 | Log reduction (E. coli ATCC 10536; dose 0.350 % w/v): 4.0 | Effect fraction (E. coli ATCC 10536; dose 0.400 % w/v): 1.00 | Log reduction (E. coli ATCC 10536; dose 0.400 % w/v): 7.6

CC(=O)OC(C)c1ccccc1 (stereo not drawn) [Styrallyl Acetate]
Effect fraction (E. coli ATCC 10536; dose 0.120 % w/v): 0.03 | Log reduction (E. coli ATCC 10536; dose 0.120 % w/v): 0.3 | Effect fraction (E. coli ATCC 10536; dose 0.140 % w/v): 0.09 | Log reduction (E. coli ATCC 10536; dose 0.140 % w/v): 0.7 | Effect fraction (E. coli ATCC 10536; dose 0.160 % w/v): 0.37 | Log reduction (E. coli ATCC 10536; dose 0.160 % w/v): 2.7 | Effect fraction (E. coli ATCC 10536; dose 0.200 % w/v): 1.00 | Log reduction (E. coli ATCC 10536; dose 0.200 % w/v): 7.4 | Effect fraction (E. coli ATCC 10536; dose […] w/v): 0.86 | Log reduction (E. coli ATCC 10536; dose […] w/v): 6.4

COc1ccc(C=O)cc1 [Aldehyde Anisique]
Effect fraction ([2]; Dose 0.4 % w/v): 0.190 | Log reduction ([2]; Dose 0.4 % w/v): 1.5 | Effect fraction ([2]; Dose 0.42 % w/v): 0.370 | Log reduction ([2]; Dose 0.42 % w/v): 2.8 | Effect fraction ([2]; Dose 0.46 % w/v): 0.670 | Log reduction ([2]; Dose 0.46 % w/v): 5.2 | Effect fraction ([2]; Dose 0.5 % w/v): 1.000 | Log reduction ([2]; Dose 0.5 % w/v): 7.7

CCC(CC(C)CC)=NO (stereo not drawn) [Stemone]
Effect fraction (S. aureus ATCC 6538; Dose 0.1 % w/v, BCT 60 s): 0.050 | Log reduction (S. aureus ATCC 6538; Dose 0.1 % w/v, BCT 60 s): 0.4 | Effect fraction (S. aureus ATCC 6538; Dose 0.120 % w/v, BCT 60 s): 0.220 | Log reduction (S. aureus ATCC 6538; Dose 0.120 % w/v, BCT 60 s): 1.6 | Effect fraction (S. aureus ATCC 6538; Dose 0.140 % w/v, BCT 60 s): 0.660 | Log reduction (S. aureus ATCC 6538; Dose 0.140 % w/v, BCT 60 s): 4.8 | Effect fraction (S. aureus ATCC 6538; Dose 0.15 % w/v, BCT 60 s): 0.890 | Log reduction (S. aureus ATCC 6538; Dose 0.15 % w/v, BCT 60 s): 6.4 | Effect fraction (S. aureus ATCC 6538; Dose 0.160 % w/v, BCT 60 s): 1.000 | Log reduction (S. aureus ATCC 6538; Dose 0.160 % w/v, BCT 60 s): 7.2

O=C/C=C/c1ccccc1 [Cinnamic aldehyde]
log reduction at 0.25 % strength (S. aureus ATCC 6538; Staphylococcus aureus, ATCC6538, 1 min, Dose 0.25 % w/v, BCT 60 s): 0.3 | log reduction at 0.3 % strength (S. aureus ATCC 6538; Staphylococcus aureus, ATCC6538, 1 min, Dose 0.3 % w/v, BCT 60 s): 2.9 | log reduction at 0.325 % strength (S. aureus ATCC 6538; Staphylococcus aureus, ATCC6538, 1 min, Dose 0.325 % w/v, BCT 60 s): 4.2 | log reduction at 0.35 % strength (S. aureus ATCC 6538; Staphylococcus aureus, ATCC6538, 1 min, Dose 0.35 % w/v, BCT 60 s): 6.5 | log reduction at 0.4 % strength (S. aureus ATCC 6538; Staphylococcus aureus, ATCC6538, 1 min, Dose 0.4 % w/v, BCT 60 s): 7.1

OCc1ccccc1 [Benzyl alcohol]
log reduction at 1 % strength (E. coli ATCC 10536; Escherichia coli, ATCC10536, 45 s, dose 1.000 % w/v): 0.2 | log reduction at 1.2 % strength (E. coli ATCC 10536; Escherichia coli, ATCC10536, 45 s, dose 1.200 % w/v): 2 | log reduction at 1.3 % strength (E. coli ATCC 10536; Escherichia coli, ATCC10536, 45 s, dose 1.300 % w/v): 4.3 | log reduction at 1.4 % strength (E. coli ATCC 10536; Escherichia coli, ATCC10536, 45 s, dose 1.400 % w/v): 5.9 | log reduction at 1.6 % strength (E. coli ATCC 10536; Escherichia coli, ATCC10536, 45 s, dose 1.600 % w/v): 7.3
